Holding throughout (assay type): biochemical
For one test, the target named is SYK (Homo sapiens, UniProt P43405). The experiment in a line: SYK enzyme assay, coupled enzyme assay. The conditions noted are these: 200 μM ATP, 4 μM poly Gly-Tyr peptide, 30° C. The gist of the method:
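Pyruvate kinase/lactate dehydrogenase-coupled NADH assay in HEPES pH 7.5 with MgCl2, NaCl, DTT and 1.5% DMSO, using 200 μM ATP, 4 μM poly Gly-Tyr and 25 nM enzyme. Compound at 30 μM final was preincubated ~10 min at 30 °C. Rates were read over 5 min at 30 °C and Ki derived.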

A further test has as its target T1, TAK1A-TAB fusion protein (Homo sapiens, UniProt O43318).
T1 construct: using 20 nM TAK1A-TAB fusion protein
T1 sequence (O43318 with tags, fused parts or gaps isoform O43318-2 limits assumed): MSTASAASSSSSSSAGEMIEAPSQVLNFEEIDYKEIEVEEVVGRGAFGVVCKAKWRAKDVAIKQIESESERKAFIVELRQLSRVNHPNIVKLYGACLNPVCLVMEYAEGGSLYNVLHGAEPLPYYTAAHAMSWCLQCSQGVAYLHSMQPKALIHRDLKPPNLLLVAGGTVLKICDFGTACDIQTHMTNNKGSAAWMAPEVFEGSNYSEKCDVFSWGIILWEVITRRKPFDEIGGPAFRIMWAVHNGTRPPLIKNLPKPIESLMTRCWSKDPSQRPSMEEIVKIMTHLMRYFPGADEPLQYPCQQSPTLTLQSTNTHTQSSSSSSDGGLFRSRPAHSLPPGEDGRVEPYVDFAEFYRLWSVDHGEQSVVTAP
The experiment in a line: TAK-1 inhibition assay, radiometric filter binding assay. The conditions noted are these: 50 μM ATP, 12 μM bovine myelin basic protein, 20 nM TAK1A-TAB fusion protein. The gist of the method:
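Radiometric filter-binding assay with 20 nM TAK1A-TAB fusion, 50 μM [33P]ATP and 12 μM bovine MBP in pH 7.5 HEPES/MgCl2, NaCl, DTT, 1.5% DMSO. Compounds titrated 0.046–3.73 μM (6 points); 2 h at ~20 °C, TCA quench, filtered counts. Ki derived from rate versus inhibitor concentration.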

The target in another test is T2, Aurora-2 (Homo sapiens, UniProt O14965).
T2 construct: addition of 10 μL of Aurora-2 stock solution to give a final concentration of 70 nM
T2 sequence (O14965 1-403): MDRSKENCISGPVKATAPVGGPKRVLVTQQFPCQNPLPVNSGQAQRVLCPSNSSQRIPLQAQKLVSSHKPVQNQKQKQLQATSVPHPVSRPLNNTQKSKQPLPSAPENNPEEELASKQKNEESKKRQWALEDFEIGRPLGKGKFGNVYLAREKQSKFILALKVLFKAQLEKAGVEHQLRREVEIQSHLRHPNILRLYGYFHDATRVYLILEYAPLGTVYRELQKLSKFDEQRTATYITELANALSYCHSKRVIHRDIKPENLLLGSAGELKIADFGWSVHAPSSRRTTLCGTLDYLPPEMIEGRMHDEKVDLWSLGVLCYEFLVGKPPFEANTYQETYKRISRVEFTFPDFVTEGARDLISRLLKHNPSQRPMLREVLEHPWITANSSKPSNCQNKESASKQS
The experiment in a line: Inhibition of AUR-2, coupled enzyme assay. The conditions noted are these: 70 nM Aurora-2, 800 μM peptide LRRASLG, 30° C. Summed up:
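Coupled pyruvate kinase/lactate dehydrogenase assay with 70 nM Aurora-2, 800 μM LRRASLG peptide and […] in 0.1 M HEPES pH 7.5, 10 mM MgCl2, 1 mM DTT, 25 mM NaCl. Compound (up to 30 μM final) preincubated 10 min at 30 °C; NADH absorbance at 340 nm followed 5 min. Ki from rates versus inhibitor concentration.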

Some results are limits rather than exact numbers.

A word on the Ki: it is the dissociation constant of the complex between target and ligand, obtained from inhibition or displacement. A lower Ki goes with tighter binding. `C[N+]1(C)CCN(c2ccc(-c3cnc4[nH]cc(-c5oncc5-c5cccc(F)c5F)c4c3)cc2)CC1` [Compound 155]: the inhibition constant (Ki) is 200 to 1000 nM at SYK and less than 200 nM at TAK1A-TAB fusion protein. `Fc1cccc(-c2cnoc2-c2c[nH]c3ncc(Cl)cc23)c1F` [Compound 44, 3-[4-(2,3-Difluoro-phenyl)-isoxazol-5-yl]-5-chloro-1H-pyrrolo[2,3-b]pyridine]: the Ki was 1000 to 12500 nM on SYK and less than 200 nM at Aurora-2. With `CN1CCN(C(=O)[C@H]2C[C@@H]2c2cnc3[nH]cc(-c4oncc4-c4cccc(F)c4F)c3c2)CC1` (relative stereo) [Compound 142, trans-(2-{3-[4-(2,3-Difluoro-phenyl)-isoxazol-5-yl]-1H-pyrrolo[2,3-b]pyridin-5-yl}-cyclopropyl)-(4-methyl-piperazin-1-yl)-methanone], the Ki on TAK1A-TAB fusion protein was 200 to 1000 nM. With `c1ccc(-c2cnoc2-c2c[nH]c3ncccc23)cc1` [Compound 35, 3-[4-Phenyl-isoxazol-5-yl]-1H-pyrrolo[2,3-b]pyridine], on SYK, the Ki was 1000 to 12500 nM. On to `Fc1cccc(-n2cnnc2-c2c[nH]c3ncc(-c4ccc(N5CCNCC5)nc4)cc23)c1F` [Compound 111, 3-[4-(2,3-Difluoro-phenyl)-4H-[1,2,4]triazol-3-yl]-5-(6-piperazin-1-yl-pyridin-3-yl)-1H-pyrrolo[2,3-b]pyridine], for which the Ki on TAK1A-TAB fusion protein was in the range of 1000 to 12500 nM. `Cc1cnc2[nH]cc(-c3oncc3-c3cccc(F)c3F)c2c1` [Compound 46, 3-[4-(2,3-Difluoro-phenyl)-isoxazol-5-yl]-5-methyl-1H-pyrrolo[2,3-b]pyridine]: the Ki on TAK1A-TAB fusion protein is 1000 to 12500 nM; at Aurora-2, 200 to 1000 nM. On TAK1A-TAB fusion protein, `CN(C)C1CCC(c2cnc3[nH]cc(-c4oncc4-c4cccc(F)c4F)c3c2)CC1` (stereo not drawn) [Compound 141, (4-{3-[4-(2,3-Difluoro-phenyl)-isoxazol-5-yl]-1H-pyrrolo[2,3-b]pyridin-5-yl}-cyclohexyl)-dimethylamine] gave an inhibitory constant (Ki) of 200 to 1000 nM. Compound `NC(=O)c1ccc(-c2cnc3[nH]cc(-c4oncc4-c4cccc(F)c4F)c3c2)cc1` [Compound 153] yielded a Ki at Aurora-2 of less than 200 nM.

Regarding `Fc1ccc(F)c(-c2cnoc2-c2c[nH]c3ncccc23)c1F` [Compound 41, 3-[4-(2,3,6-Trifluoro-phenyl)-isoxazol-5-yl]-1H-pyrrolo [2,3-b]pyridine], the Ki at SYK is 1000 to 12500 nM.

For the origin of these results see patent publication US7446199B2, “Compositions useful as inhibitors of protein kinases” (Vertex Pharmaceuticals Incorporated, priority 2003, dated 2008).
